Measured values published in the supplement of paper PMC10307832.

What was measured:
Test in all cases: relative viability (nuclei count vs DMSO), 5 days (fraction); higher = more cells survive
Wnt-C59 + AZD7762 = compound: CC1=NC=CC(=C1)C2=CC=C(C=C2)CC(=O)NC3=CC=C(C=C3)C4=CN=CC=C4 [Wnt-C59] + NC(=O)Nc1cc(-c2cccc(F)c2)sc1C(=O)N[C@H]1CCCNC1 [AZD7762] (partner 0.2 µM)
Summary of the method: (§1)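 Values are medians from duplicate plates. Each reflects relative viability, defined as the nuclei count of treated wells over that of vehicle wells. Lung cancer cell lines in 1536-well plates were pin-tool dosed one day after seeding with one drug alone or with a fixed anchor-drug dose plus five library-drug doses (not always all listed) in √10 steps, then fixed, stained and imaged at 4× after 5 days.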

Wnt-C59 + Vorinostat = compound: CC1=NC=CC(=C1)C2=CC=C(C=C2)CC(=O)NC3=CC=C(C=C3)C4=CN=CC=C4 [Wnt-C59] + O=C(CCCCCCC(=O)Nc1ccccc1)NO [Vorinostat] (partner 1 µM)
Summary of the method: as §1

Lapatinib + Crizotinib = compound: CS(=O)(=O)CCNCc1ccc(-c2ccc3ncnc(Nc4ccc(OCc5cccc(F)c5)c(Cl)c4)c3c2)o1 [Lapatinib] + C[C@@H](Oc1cc(-c2cnn(C3CCNCC3)c2)cnc1N)c1c(Cl)ccc(F)c1Cl [Crizotinib] (partner 1 µM)
Summary of the method: as §1

Wnt-C59 + Alpelisib = compound: CC1=NC=CC(=C1)C2=CC=C(C=C2)CC(=O)NC3=CC=C(C=C3)C4=CN=CC=C4 [Wnt-C59] + Cc1nc(NC(=O)N2CCC[C@H]2C(N)=O)sc1-c1ccnc(C(C)(C)C(F)(F)F)c1 [Alpelisib] (partner 2 µM)
Summary of the method: as §1

Cell Line | relative viability (Wnt-C59 + AZD7762; first compound 0.001 µM) | relative viability (Wnt-C59 + AZD7762; first compound 0.01 µM) | relative viability (Wnt-C59 + AZD7762; first compound 0.03162 µM) | relative viability (Wnt-C59 + AZD7762; first compound 0.1 µM) | relative viability (Wnt-C59 + Vorinostat; first compound 0.001 µM) | relative viability (Wnt-C59 + Vorinostat; first compound 0.01 µM) | relative viability (Wnt-C59 + Vorinostat; first compound 0.03162 µM) | relative viability (Wnt-C59 + Vorinostat; first compound 0.1 µM) | relative viability (Lapatinib + Crizotinib; first compound 0.02 µM) | relative viability (Lapatinib + Crizotinib; first compound 0.06325 µM) | relative viability (Lapatinib + Crizotinib; first compound 0.2 µM) | relative viability (Lapatinib + Crizotinib; first compound 0.6325 µM) | relative viability (Lapatinib + Crizotinib; first compound 2 µM) | relative viability (Wnt-C59 + Alpelisib; first compound 0.001 µM) | relative viability (Wnt-C59 + Alpelisib; first compound 0.01 µM) | relative viability (Wnt-C59 + Alpelisib; first compound 0.03162 µM) | relative viability (Wnt-C59 + Alpelisib; first compound 0.1 µM)
HCC-44 | 1.07 | 0.952 | 0.97 | 1.01 | 1.16 | 1.02 | 1.13 | 1.12 | 0.747 | 0.743 | 0.837 | 0.802 | 0.675 | 0.792 | 0.817 | 0.865 | 0.892
LOU-NH91 | 0.765 | 0.67 | 0.778 | 0.761 | 0.868 | 0.864 | 0.886 | 0.978 | 0.697 | 0.626 | 0.599 | 0.547 | 0.534 | 0.744 | 0.597 | 0.683 | 0.79
NCI-H727 | 0.776 | 0.528 | 0.598 | 0.687 | 1.14 | 1.16 | 1.09 | 1.14 | 0.77 | 0.663 | 0.657 | 0.718 | 0.572 | 0.584 | 0.546 | 0.741 | 0.421
LK-2 | 0.417 | 0.407 | 0.486 | 0.461 | 0.441 | 0.295 | 0.3 | 0.233 | – | – | 0.253 | 0.217 | 0.245 | 1.29 | 1.06 | 1.03 | 0.68
NCI-H322M | 0.575 | 0.577 | 0.511 | 0.536 | 0.86 | 0.816 | 0.746 | 0.93 | 0.823 | 0.649 | 0.912 | 0.857 | 0.735 | 0.747 | 0.715 | 0.718 | 0.478
NCI-H650 | 0.883 | 1.03 | 0.969 | 1.24 | 0.45 | 0.449 | 0.464 | 0.448 | – | 0.637 | 0.872 | 0.624 | 0.69 | 1.01 | 1.24 | 1.23 | 1.11
NCI-H596 | 1.06 | 1.03 | 0.987 | 1.08 | 0.601 | 0.603 | 0.59 | 0.76 | 0.916 | 0.849 | 1 | 0.997 | 0.659 | 0.528 | 0.396 | 0.615 | 0.475
PC-3 [JPC-3] | 0.883 | 1.05 | 0.758 | 0.927 | 0.781 | 0.917 | 0.785 | 1.13 | – | 0.965 | 1.09 | 0.998 | 0.656 | 1.02 | 1.05 | 1.04 | 1.07
